Reference: patent publication US8901337B2, “Metal complexes having dual histone deacetylase inhibitory and DNA-binding activity” (Royal College of Surgeons in Ireland, priority 2009, dated 2014)
Where two headings read alike, the source gives them in different places.

How the values were obtained:
[1] = system: non-tumorigenic human dermal fibroblast cell line (NHDF); experiment: MTS in vitro cytotoxicity, NHDF; assay type: cell-based; conditions: 72 hours; for IC50: MTS
Experimental: In addition Normal Neonatal Human Dermal Fibroblast, NHDF, cells were cultured in Fibroblast Basal Medium (FBM®, Clonetics, Walkersville, USA) supplemented with hFGF-B, insulin, 5% FBS and gentamicin/amphotericin-B (FGM®-2 SingleQuots, Clonetics, Walkersville, USA).
(§1) All cells were kept in a humidified atmosphere with 5% CO2 at 37° C.; cells from confluent monolayers were removed from flasks by trypsin/EDTA solution and their viability determined by the trypan blue exclusion test.
(§2) Cell growth was determined by the [3-(4,5-dimethylthiazol-2-yl)-5-(3-carboxymethoxyphenyl)-2-(4-sulfophenyl)-2H-tetrazolium, inner salt, (MTS test, Promega, Southampton, UK), a colorimetric assay based on the ability of the viable cells to reduce a soluble yellow tetrazolium salt to blue formazan. 10,000 ovarian cancer cells or 3,000 fibroblast cells for example were seeded per well onto 96-well plates in 100 μl of the appropriate culture medium. 24 hr after sowing the cells, the media was removed and the cells were treated by adding 100 μl of the compound media solutions at the appropriate concentrations. cis-[Pt(NH3)2(malSAHA−2H)], cisplatin and cis-[Pt(NH3)2(mal)] were prepared freshly in cell culture media. […] The maximum percentage of dmso present in any well was less than 0.1% (v/v). cis-[Pt(NH3)2(malBel—2H)], belinostat and malbelinostat were freshly prepared in dimethyl formamide (DMF) and diluted in culture media prior to the MTS assay. The maximum percentage of DMF present in any well was 0.5% (v/v). A range of concentrations between 1 μM and 100 μM was used.
(§3) After 72 hr of treatment, 20 μl of the MTS reagent was added to each well and the plates incubated for 2 hr at 37° C. […] The percentages of surviving cells relative to untreated controls were determined.

[2] = system: ovarian cancer cell line A2780 P; experiment: MTS in vitro cytotoxicity, A2780 P; assay type: cell-based, human; conditions: 72 hours; for IC50: MTS
Experimental: (§4) Cells were cultured in the appropriate media. […] In order to retain resistance 1 μM cisplatin was added to the media of the A2780 cisR cells every third passage. A2780 cisR cells are resistant to cisplatin through a combination of decreased uptake, enhanced DNA repair/tolerance, and elevated reduced glutathione levels
as §1, §2, §3

[3] = system: SKBR (breast cancer cells); experiment: Cellular uptake of Pt (FAAS), SKBR; assay type: cell-based; conditions: 72 hours treatment; for Uptake of Pt complexes into SKBR: 10 μM
Experimental: (§5) Cellular uptake of Pt compounds was measured in SKBR, SW480, A549, A2780P and CH1 cells. The cells were seeded in 60 mm tissue culture dishes with 10 mL of their respective medium and after overnight incubation, the cells were treated with the Pt complexes for 72 h at 10 μM concentration. The cell monolayers at the end of the incubation with the Pt complexes were washed (twice) with ice-cold phosphate buffered saline (PBS), trypsinized and harvested into cold (4° C.) PBS. Cell suspensions were centrifuged and the pellets were stored in PBS at −80° C. until assayed. Afterward, the pellets were digested by high pressure microwave mineralization and Pt content was determined by flameless atomic absorption spectrophotometry (FAAS). The results of cellular Pt uptake were corrected for adsorption effects. All experiments were made in triplicate.^17

[4] = system: A2780 P (ovarian cancer cells); experiment: Cellular uptake of Pt (FAAS), A2780 P; assay type: cell-based, human; conditions: for Uptake of Pt complexes into A2780 P: 10 μM
Experimental: as §5, with “The cells were seeded in 60 mm tissue culture dishes with 10 mL of their respective medium and after overnight incubation, the cells were treated with the Pt complexes for 72 h at 10 μM concentration.” left out

[5] = system: liver cell lines (Hep-G2); experiment: MTS in vitro cytotoxicity, Hep-G2; assay type: cell-based; conditions: 72 hours, Table 1, read-out: IC50 values against Hep-G2
Experimental: as §1, §2, §3

[6] = system: cisplatin resistant ovarian cancer cell line A2780 cisR; experiment: MTS in vitro cytotoxicity, A2780 cisR; assay type: cell-based, human; conditions: 72 hours; for IC50: MTS
Experimental: as §4, §1, §2, §3

A549 (lung cancer cells) = experiment: Cellular uptake of Pt (FAAS), A549; assay type: cell-based; conditions: 10 μM, 72 hours treatment
Experimental: as §5

[7] = system: SW480 (colon cancer cells); experiment: Cellular uptake of Pt (FAAS), SW480; assay type: cell-based; conditions: 10 μM, 72 hours treatment
Experimental: as §5

CH1 (cancer cells) = experiment: Cellular uptake of Pt (FAAS), CH1; assay type: cell-based; conditions: 10 μM, 72 hours treatment
Experimental: as §5

cell line (CH1) = experiment: MTS in vitro cytotoxicity, CH1; assay type: cell-based; conditions: 72 hours, Table 1, read-out: IC50 values against CH1
Experimental: as §1, §2, §3

[8] = system: lung cancer cell line (A549); experiment: MTS in vitro cytotoxicity, A549; assay type: cell-based; conditions: 72 hours, Table 1, read-out: IC50 values against A549
Experimental: as §1, §2, §3

A2780 cisR cells = experiment: Morphological analysis (methylene blue/eosin and DAPI staining), A2780 cisR; assay type: cell-based, human; conditions: IC50 and IC75, 72 hr
Experimental: (§6) Preparations of A2780 P and A2780-cisR cells were exposed to test agents for 72 hr and stained with methylene blue and eosin^19. Drug-treated cells were grown in petri dishes, washed once with PBS, once with PBS:methanol (1:1, v/v), and then fixed in 100% (v/v) methanol for 10 min. Following fixation, cell monolayers were rinsed with anhydrous methanol and stained with methylene blue and eosin for 2 min. Monolayers were then agitated for a further 2 min, destained by rinsing under a gentle stream of water and then finally rinsed with distilled water. Phase contrast microscopy was carried out using a Ceti-phase contrast microscope.
(§7) Drug-treated cells were also stained using a DNA-binding agent commonly used to stain nuclei and visualise nuclear morphology and DNA condensation, namely 4,6-diamidino-2-phenylindole (DAPI). Briefly, a monolayer of drug-treated cells was washed in PBS and fixed with 4% (w/v) paraformaldehyde for 30 min at room temperature. These cells were then permeabilized with 0.2% (v/v) Triton X in PBS and incubated with 1 μg/ml of DAPI for 30 min. Cells were again washed three times with PBS and viewed using a fluorescent microscope with 340/380 nm excitation filter at 250× magnification. Apoptotic cells were confirmed by identification of intensely stained, fragmented nuclei and condensed chromatin.

[9] = system: A2780 cisR (cisplatin resistant ovarian cancer cells); experiment: Cellular uptake of Pt (FAAS), A2780 cisR; assay type: cell-based, human; conditions: 10 μM, 24 hours treatment
A2780 P cells = experiment: Morphological analysis (methylene blue/eosin and DAPI staining), A2780 P; assay type: cell-based, human; conditions: IC50 and IC75, 72 hr
Experimental: as §6, §7

[10] = Table 1, read-out: IC50 values against NHDF
[11] = Table 1, read-out: IC50 values against A2780 P
[12] = Table 1, read-out: IC50 values against A2780cisR
[13] = Table 5, read-out: IC50 (μM) ± S.E.M. against NHDF
[14] = Table 5, read-out: IC50 (μM) ± S.E.M. against A2780P
[15] = Table 5, read-out: IC50 (μM) ± S.E.M. against A2780CisR

[NH2][Pt]1([NH2])[O]C(=O)C(Cc2ccc(NC(=O)CCCCCCC(=O)NO)cc2)C(=O)[O]1 [cis-[Pt(NH3)2(malSAHA−2H)], cis-[Pt(NH3)2(malSAHA−2H)].3H2O]
IC50 [1, 10]: 83 ± 7.6 µM | selectivity for cancer cell lines over normal cell line NHDF ([1]; cytotoxicity): displays selectivity for cancer cell lines over representative normal cell line NHDF | IC50 [2, 11]: 9 ± 3.1 µM | Uptake of Pt complexes into SKBR [3]: 6568 ± 312 pmol Pt/2 × 10^6 cell | uptake by cancer cells compared with cisplatin (in words) ([3]; SKBR, SW480, A549, A2780 P, CH1): taken up by cancer cells after 72 hours treatment and to a greater extent than cisplatin | Uptake of Pt complexes into A2780 P ([4]; 72 hours treatment): 5535 ± 865 pmol Pt/2 × 10^6 cell | IC50 [5]: 47.8 ± 4 µM | IC50 [6, 12]: 70 ± 3.5 µM | Uptake of Pt complexes into A549 (A549 (lung cancer cells)): 6419 ± 619 pmol Pt/2 × 10^6 cell | Uptake of Pt complexes into SW480 [7]: 5422 ± 222 pmol Pt/2 × 10^6 cell | Uptake of Pt complexes into CH1 (CH1 (cancer cells)): 1595 ± 158 pmol Pt/2 × 10^6 cell | IC50 (cell line (CH1)): 3.8 ± 0.5 µM | IC50 [8]: 12.7 ± 1.8 µM

[NH2][Pt]1([NH2])[O]C(=O)C(Cc2ccc(NS(=O)(=O)c3ccc(/C=C/C(=O)NO)cc3)cc2)C(=O)[O]1 [cis-[Pt(NH3)2(malBel−2H)], cis-[Pt(NH3)2(malBel−2H)].1.5H2O]
cellular morphology and integrity of DNA (A2780 cisR cells): considerable thinning of the monolayer, attenuation of cells and the nuclei to be intensively stained and fragmented | IC50 [1, 13]: 33.9 ± 2 µM | IC50 [2, 14]: 7.6 ± 0.3 µM | selectivity for A2780 P over normal cell line NHDF ([2]; cytotoxicity): displays selectivity for A2780 P cancer cell line over representative normal cell line NHDF | Uptake of Pt complexes into A2780 P ([4]; 24 hours treatment): 154 ± 10 pmol Pt/2 × 10^6 cell | uptake by cancer cells (in words) ([4]; 24 hours treatment, A2780 P and A2780 cisR): is taken up by cancer cells after 24 hours treatment | IC50 [6, 15]: 11.7 ± 0.9 µM | activity against cisplatin resistant A2780 cisR (in words) ([6]; cytotoxicity): retains activity against A2780 cisR cell line | Uptake of Pt complexes into A2780 cisR [9]: 42.3 ± 5.3 pmol Pt/2 × 10^6 cell | cellular morphology and integrity of DNA (A2780 P cells): considerable thinning of the monolayer, attenuation of cells and the nuclei to be intensively stained and fragmented

N.N.[Cl][Pt][Cl] [cisplatin, cis-[Pt^II(NH3)2Cl2], reference compound]
cellular morphology and integrity of DNA (A2780 cisR cells): considerable thinning of the monolayer, attenuation of cells and the nuclei to be intensively stained and fragmented | IC50 [1, 10]: 10 ± 1.8 µM | IC50 [1, 13]: 2.4 ± 0.6 µM | IC50 [2, 11]: 2.9 ± 0.1 µM | IC50 [2, 14]: 1.3 ± 0.1 µM | Uptake of Pt complexes into SKBR [3]: 876.25 ± 70.55 pmol Pt/2 × 10^6 cell | Uptake of Pt complexes into A2780 P ([4]; 24 hours treatment): 290 ± 35 pmol Pt/2 × 10^6 cell | Uptake of Pt complexes into A2780 P ([4]; 72 hours treatment): 612.25 ± 107.75 pmol Pt/2 × 10^6 cell | IC50 [5]: 39.8 ± 3.5 µM | IC50 [6, 12]: 28.5 ± 1.5 µM | IC50 [6, 15]: 9.8 ± 1 µM | Uptake of Pt complexes into A549 (A549 (lung cancer cells)): 614.85 ± 94.85 pmol Pt/2 × 10^6 cell | Uptake of Pt complexes into SW480 [7]: 391.95 ± 51.95 pmol Pt/2 × 10^6 cell | Uptake of Pt complexes into CH1 (CH1 (cancer cells)): 145.4 ± 21.8 pmol Pt/2 × 10^6 cell | Uptake of Pt complexes into A2780 cisR [9]: 98 ± 11 pmol Pt/2 × 10^6 cell | IC50 (cell line (CH1)): 1 ± 0.5 µM | IC50 [8]: 6.3 ± 0.1 µM | cellular morphology and integrity of DNA (A2780 P cells): considerable thinning of the monolayer, attenuation of cells and the nuclei to be intensively stained and fragmented
